Assay results: patent US20230390409A1, “FAP-ACTIVATED SERUM EXTENDED HALF-LIFE THERAPEUTIC CONJUGATES” (Avacta Life Sciences Limited, priority 2020, published 2023)

B1: 42CQ-6501: 42CQ, an AFFIMER polypeptide binding serum albumin (SEQ ID NO: 133), conjugated with 6501 (conjugate)
chain: MIPRGLSEAKPATPEIQEIVDKVKPQLEEKTNETYGKLEAVQYKTQVLANFFQRRWPGSTNYYIKVRAGDNKYMHLKVFNGPWKFRNTDRGADRVLTGYQVDKNKDDELTGFAAAGGRAEQKLISEEDLGCAENLYFQGGAAGHHHHHH
modifications: conjugated with 6501

Experiments:
[1] = tested on: G-CSF; conditions: VbP alone, known; cited from earlier work
[2] = tested on: mouse tumor model; test: EC50 / maximum tolerated dose studies, mice; type: in vivo
Method: (§1) Half-maximal effective concentration (EC50) studies were undertaken to examine the difference between mice and rats administered talabostat alone (FIG. 4A) and mice and rats administered the therapeutic conjugates comprising talabostat (FIG. 4B). When talabostat is administered alone, the talabostat maximum tolerated dose (MTD) is about 3 mg/m^2 in a mouse tumor model and 0.18 mg/m^2 in rats. That is, the talabostat MTD is 1/17 the tumor model EC50 (FIG. 4A). In contrast, when the talabostat is administered as part of the therapeutic conjugate, the MTD is 160 mg/m^2 in the mouse model and the EC50 for rats is greater than 500 mg/m^2 (FIG. 4B). Talabostat, as part of the therapeutic conjugate, can be administered to rats and mice at therapeutically effective doses.

[3] = tested on: rats; test: EC50 / maximum tolerated dose studies, rats; type: in vivo, rat
Method: as §1

[4] = tested on: G-CSF; test: G-CSF serum cytokine response in nontumor-bearing BALB/c mice (ELISA); type: in vivo; conditions: 200 μg/mouse intraperitoneal, six hours after dosing (FIG. 23)
Method: The FAP-activated prodrug G-CSF serum cytokine response in nontumor-bearing BALB/c mice was examined. Female BALB/c mice of 11-12 weeks of age were injected intraperitonially with vehicle (PBS), 42CQ-6501, or 42CQ-6501+MSA at 200 μg/mouse, in groups of 5 mice per treatment.
While cytokine recruitment is believed to play an important role in tumor immunity, its presence in the serum represents a systemic response, which can lead to unwanted adverse effects. […] 42CQ is an AFFIMER® polypeptide designed to bind to serum albumin (SEQ ID NO: 133). Consequently, the 42CQ-based conjugates (with 6501) were prepared with or without prebinding to MSA to determine whether there was an evident difference between the two formulations.
Six hours after dosing, blood was collected to measure G-CSF in the serum using a mouse G-CSF Quantikine ELISA kit.

Molecule | serum G-CSF response [1] | maximum tolerated dose (MTD) ([2]; mouse tumor model) | talabostat MTD relative to the tumor model EC50 ([2]; talabostat administered alone (FIG. 4A)) | maximum tolerated dose (MTD) [3] [mg/m^2] | serum concentration of G-CSF [4]
CC(C)[C@H](N)C(=O)N1CCC[C@H]1B(O)O [Talabostat, Val-boroPro] | large serum G-CSF response | about 3 mg/m^2 | 1/17 | 0.18 | –
B1 | – | – | – | – | significant increase
